Laboratory results taken from patent publication US20240350436A1, “METHODS FOR HAIR GROWTH” (THE REGENTS OF THE UNIVERSITY OF MICHIGAN, priority 2021, published 2024).

Key:
[1] = tested on: Male and female Balb/cJ mice; assay: Hair regrowth on shaved dorsal skin of mice after topical treatment; type: in vivo
Protocol: Hair regrowth was monitored daily. […] The hair length was measured by digital pachymeter.
Drug administration bpV(pic) (Sigma Aldrich, San Louis, MO, USA) was reconstituted in sterile Milli-Q water. bpV(pic) was also used to prepare a 10 μM bpV(pic) gel using 2% carmellose gel base (vehicle). bpV(pic) or vehicle gel was topically applied to the skin twice a day.
The dorsal skin of male and female mice was shaved and treated with vehicle or bpV (pic) topically, twice a day for 21 days (FIG. 1A).
The dorsal skin of male and female mice was shaved and treated with vehicle or SF1670 (N-(9,10-Dioxo-9,10-dihydro-phenanthren-2-yl)-2,2-dimethylpropionamide, N-(9,10-dihydro-9,10-dioxo-2-phenanthrenyl)-2,2-dimethyl-propanamide) topically, twice a day for 5 weeks. Hairs were collected once a week and measured using a millimeter (mm) as the measurement unit.

hair follicles = settings: skin samples of treated mice, H&E (FIG. 2A)
Protocol: (§1) Skin samples were taken from treated and vehicle control mice and stained to evaluate skin histomorphology. Hair follicle cycle was evaluated by morphology and divided into 3 phases: growth phase (anagen); regression phase (catagen); and telogen. […] Proliferative cells in the hair follicle (follicular) and interfollicular epidermis (Interfollicular) were quantified for the identified timepoints.

[2] = tested on: proliferative cells in the hair follicle and interfollicular epidermis; settings: after 10 days, BrdU positive cells per field
Protocol: BrdU labeling and cell proliferation BrdU (10 mg/ml) was injected in mice via IP two hours previous to the euthanasia. Tissue was collected and processed. The tissue was placed on slides and deparaffinized in xylene substitute and hydrated in descending grades of ethanol. Antigen retrieval was performed by HCL at 37° C. for 1 hour. Anti-BrdU (1:200, Novus Biologicals, Centennial, CO) was incubated overnight at 4° C., followed by secondary antibody conjugated with Alexa 488 incubation and counterstaining with Hoechst 33342. All slides were mounted using Fluoroshield. For quantification, ten fields were captured at a magnification of x400. The images were analyzed using ImageJ (NIH, Bethesda, MD, USA), and the proliferation was expressed as the number of positive cells per field.
as §1

[3] = tested on: Human epidermal keratinocytes (HEK); settings: HEK monolayer, 48 hrs treatment (FIG. 3D)
Protocol: (§2) Flow cytometry analysis Isolation of skin single-cell suspension. Briefly, the subcutis underlying the dorsal skin was removed, and the epithelial cell layer was trypsinized for 2 hours at 37° C. Epithelial cell suspensions were filtered through 70 μm mesh filters (BD Bioscience, San Jose, CA, USA) to achieve a single cell suspension. Cells were maintained on ice. Immunofluorescence staining for CD34-FITC and CD49f-P.E./Cye5 primary antibodies (BD Pharmingen, San Jose, CA, USA) was performed to detected hair follicle stem cells. Antibodies were incubated with the cells for 30 minutes at 4° C. after cells were incubated with FcR blocking reagent (Miltenyi Biotec, Bergisch Gladbach, Germany). Human epidermal keratinocytes (HEK) (Cell Applications, Inc., San Diego, CA) were cultured in Epi-Vita Growth Medium (Cell Applications, Inc., San Diego, CA) and maintained at 37° C. with 5% of CO2 in a humidified incubator. Human epidermal keratinocytes (HEK) were cultured in a monolayer following instructions for culture of primary cells and received BpV(pic) or vehicle for 48 hrs. Treated cells were trypsinized and stained for CD44-APC (BD Pharmingen, San Jose, CA, USA) and Aldefluor kit (StemCell Technologies, Durham, NC, USA) according to the manufacturer's instructions to detected aldehyde dehydrogenase (ALDH) enzymatic activity. […]

hair follicle stem cells = settings: treated mice, FACS (FIGS. 3B-3C)
Protocol: as §2

| SMILES | hair regrowth (hair length) in comparison to the vehicle control ([1]; 10 μM gel topically twice a day for 21 days, shaved dorsal skin, all subjects (FIG. 1B)) | hair follicle cycle phase by morphology (hair follicles) | proliferative cells in the hair follicle (follicular) versus vehicle control [2] | proliferative cells in the interfollicular epidermis versus vehicle control [2] | stem cell number in human stem cells compared to vehicle control [3] | number of hair follicle stem cells compared to vehicle control (hair follicle stem cells) | hair regrowth (hair length) compared to vehicle control ([1]; topically twice a day for 5 weeks, hairs measured once a week (FIG. 4)) |
| --- | --- | --- | --- | --- | --- | --- | --- |
| O=C([O-])c1ccccn1.[K+].[K+].[O-2].[O-][O-].[O-][O-].[V+5] [bpV(pic), dipotassium bisperoxo(pyridine-2-carboxyl)oxovanadate] | induced hair regrowth | anagen phase | increased | increased | confirmed | increased | – |
| CC(C)(C)C(=O)Nc1ccc2c(c1)C(=O)C(=O)c1ccccc1-2 [SF1670, N-(9,10-Dioxo-9,10-dihydro-phenanthren-2-yl)-2,2-dimethylpropionamide] | – | – | – | – | – | – | faster hair regrowth |
